The subject of data set [1] is Micrococcus luteus. The data set can be described thus: Antibacterial activity against Micrococcus luteus ATCC 10240 after 18 hrs by CLSI disc diffusion method. It is filed as functional. The conditions noted are these: ATCC 10240, 18 h.
The test system of data set [2] is Pseudomonas aeruginosa. As to the kind of experiment: Antibacterial activity against Pseudomonas aeruginosa ATCC 27853 after 18 hrs by CLSI disc diffusion method. It is filed as functional. The conditions noted are these: ATCC 27853, 18 h.
The test system of another data set is Escherichia coli. As to the kind of experiment: Antibacterial activity against Escherichia coli ATCC 10538 after 18 hrs by CLSI disc diffusion method. The conditions noted are these: ATCC 10538, 18 h. It is filed as functional.
The test system of data set [3] is Staphylococcus aureus. As to the kind of experiment: Antibacterial activity against Staphylococcus aureus NCTC 4163 after 18 hrs by CLSI disc diffusion method. The conditions noted are these: NCTC 4163, 18 h. It is filed as functional.
Data set [4] deals with Bordetella bronchiseptica. As to the kind of experiment: Antibacterial activity against Bordetella bronchiseptica ATCC 4617 after 18 hrs by CLSI disc diffusion method. The data set is classed as functional. The conditions noted are these: ATCC 4617, 18 h.
Another data set concerns Proteus vulgaris. The data set can be described thus: Antibacterial activity against Proteus vulgaris NCTC 4635 after 18 hrs by CLSI disc diffusion method. The data set is classed as functional. The conditions noted are these: NCTC 4635, 18 h.
The test system of data set [5] is Micrococcus luteus. The data set can be described thus: Antibacterial activity against Micrococcus luteus ATCC 9341 after 18 hrs by CLSI disc diffusion method. It is filed as functional. The conditions noted are these: ATCC 9341, 18 h.
The test system of data set [6] is Staphylococcus epidermidis. As to the kind of experiment: Antibacterial activity against Staphylococcus epidermidis ATCC 35984 after 18 hrs by CLSI […] method. The data set is classed as functional. The conditions noted are these: ATCC 35984, 18 h.
Data set [7] concerns Staphylococcus epidermidis. As to the kind of experiment: Antibacterial activity against Staphylococcus epidermidis ATCC 12228 after 18 hrs by CLSI disc diffusion method. It is filed as functional. The conditions noted are these: ATCC 12228, 18 h.
The next data set relates to Bacillus spizizenii. The data set can be described thus: Antibacterial activity against Bacillus subtilis ATCC 6633 after 18 hrs by CLSI disc diffusion method. It is filed as functional. The conditions noted are these: ATCC 6633, 18 h.
In another data set the test system is Bacillus cereus. The data set can be described thus: Antibacterial activity against Bacillus cereus ATCC 11778 after 18 hrs by CLSI disc diffusion method. It is filed as functional. The conditions noted are these: ATCC 11778, 18 h.
Data set [8] deals with Staphylococcus aureus. The data set can be described thus: Antibacterial activity against Staphylococcus aureus ATCC 25923 after 18 hrs by CLSI disc diffusion method. It is filed as functional. The conditions noted are these: ATCC 25923, 18 h.
The next data set concerns Enterococcus faecalis. The data set can be described thus: Antibacterial activity against Enterococcus faecalis ATCC 29212 after 18 hrs by CLSI disc diffusion method. It is filed as functional. The conditions noted are these: ATCC 29212, 18 h.
Data set [9] deals with Staphylococcus aureus. The data set can be described thus: Antibacterial activity against Staphylococcus aureus ATCC 6538 after 18 hrs by CLSI disc diffusion method. It is filed as functional. The conditions noted are these: ATCC 6538, 18 h.
For a further data set, the system named is Enterococcus hirae. The data set can be described thus: Antibacterial activity against Enterococcus hirae ATCC 10541 after 18 hrs by CLSI disc diffusion method. It is filed as functional. The conditions noted are these: ATCC 10541, 18 h.
The subject of data set [10] is Pseudomonas aeruginosa. As to the kind of experiment: Antibacterial activity against Pseudomonas aeruginosa ATCC 15442 after 18 hrs by CLSI disc diffusion method. It is filed as functional. The conditions noted are these: ATCC 15442, 18 h.
Data set [11] is described as follows: Selectivity index, ratio of IC50 for human HaCaT cells to MIC for Bordetella bronchiseptica ATCC 4617. The conditions noted are these: read-out: Selectivity Index. It is filed as toxicity.
A further data set has as its system A549. As to the kind of experiment: Cytotoxicity activity against human A549 cells assessed as reduction in cell viability after 72 hrs by MTT assay. It is filed as cell-based. The conditions noted are these: A549, 72 h.
Data set [12] in a line: Selectivity index, ratio of IC50 for human HaCaT cells to MIC for Proteus vulgaris NCTC 4635. It is filed as toxicity. The conditions noted are these: read-out: Selectivity Index.
Data set [13] in a line: Selectivity index, ratio of IC50 for human HaCaT cells to MIC for Escherichia coli ATCC 10538. The data set is classed as toxicity. The conditions noted are these: read-out: Selectivity Index.
Data set [14] can be described thus: Selectivity index, ratio of IC50 for human HaCaT cells to MIC for Micrococcus luteus ATCC 10240. It is filed as toxicity. The conditions noted are these: read-out: Selectivity Index.
Another data set concerns HaCaT. The data set can be described thus: Cytotoxicity activity against human HaCaT cells assessed as reduction in cell viability after 72 hrs by MTT assay. The data set is classed as cell-based.
Data set [15] can be described thus: Selectivity index, ratio of IC50 for human HaCaT cells to MIC for Bacillus subtilis ATCC 6633. The conditions noted are these: read-out: Selectivity Index. The data set is classed as toxicity.
Data set [16] can be described thus: Selectivity index, ratio of IC50 for human HaCaT cells to MIC for Enterococcus hirae ATCC 10541. The conditions noted are these: read-out: Selectivity Index. The data set is classed as toxicity.
Data set [17] in a line: Selectivity index, ratio of IC50 for human HaCaT cells to MIC for Staphylococcus aureus NCTC 4163. It is filed as toxicity. The conditions noted are these: read-out: Selectivity Index.

≈ marks a conversion by molar mass, not a printed value.

`Clc1ccc(-n2nnnc2Nc2nccs2)cc1Cl`: the MIC was determined as 51 µM (≈ 16 µg/mL) against Micrococcus luteus [1]; 821 µM (≈ 257 µg/mL) in the data set on Pseudomonas aeruginosa [2]; 821 µM (≈ 257 µg/mL) with Escherichia coli; 103 µM (≈ 32.3 µg/mL) in the data set on Staphylococcus aureus [3]; 410 µM (≈ 128 µg/mL) in data set [4]; 821 µM (≈ 257 µg/mL) in the data set on Proteus vulgaris. The MIC against Micrococcus luteus [5] was found to be 26 µM (≈ 8.14 µg/mL); in data set [6], 26 µM (≈ 8.14 µg/mL); in data set [7], 51 µM (≈ 16 µg/mL); in the data set on Bacillus spizizenii, 6 µM (≈ 1.88 µg/mL); against Bacillus cereus it was 26 µM (≈ 8.14 µg/mL); with Staphylococcus aureus [8], 51 µM (≈ 16 µg/mL). The minimum inhibitory concentration (MIC) came out at 103 µM (≈ 32.3 µg/mL) in the data set with Enterococcus faecalis, 51 µM (≈ 16 µg/mL) in the data set on Staphylococcus aureus [9], 205 µM (≈ 64.2 µg/mL) against Enterococcus hirae and 821 µM (≈ 257 µg/mL) with Pseudomonas aeruginosa [10].
As to `FC(F)(F)c1ccc(-n2nnnc2Nc2nccs2)cc1`, the minimal inhibitory concentration (MIC) was found to be 51 µM (≈ 15.9 µg/mL) with Micrococcus luteus [1]; 411 µM (≈ 128 µg/mL) against Pseudomonas aeruginosa [2]; 411 µM (≈ 128 µg/mL) with Escherichia coli; 51 µM (≈ 15.9 µg/mL) in the data set with Staphylococcus aureus [3]; 205 µM (≈ 64 µg/mL) in [4]; 411 µM (≈ 128 µg/mL) in the data set on Proteus vulgaris. Moreover, the minimum inhibitory concentration (MIC) against Micrococcus luteus [5] worked out at 6 µM (≈ 1.87 µg/mL); in [6], 6 µM (≈ 1.87 µg/mL); in [7], 13 µM (≈ 4.06 µg/mL); in the data set on Bacillus spizizenii, 26 µM (≈ 8.12 µg/mL); in the data set on Bacillus cereus, 26 µM (≈ 8.12 µg/mL); with Staphylococcus aureus [8] it was 26 µM (≈ 8.12 µg/mL). Moreover, the MIC in the data set with Enterococcus faecalis came to 51 µM (≈ 15.9 µg/mL); in the data set with Staphylococcus aureus [9] it was 51 µM (≈ 15.9 µg/mL); in the data set with Enterococcus hirae, 51 µM (≈ 15.9 µg/mL); with Pseudomonas aeruginosa [10], 411 µM (≈ 128 µg/mL). The selectivity ratio in [11] turned out to be 0.39; in data set [12], 0.19; in [13], 0.19; in [14], 1.56; in data set [15], 3.07; in [16], 1.56. Besides, in data set [17], the selectivity ratio was determined as 1.56. Also, the half-maximal inhibitory concentration (IC50) was 76 µM in the data set on A549 and 80 µM in the data set with HaCaT.
Consider `Fc1ccc(-n2nnnc2Nn2cnnc2)cc1Cl`, for which the MIC is 57 µM (≈ 16 µg/mL) in the data set on Micrococcus luteus [1]; greater than 914 µM in the data set on Pseudomonas aeruginosa [2]; 57 µM (≈ 16 µg/mL) in the data set with Escherichia coli; 14 µM (≈ 3.93 µg/mL) against Staphylococcus aureus [3]; greater than 914 µM in [4]; 57 µM (≈ 16 µg/mL) in the data set with Proteus vulgaris. Also, the MIC with Micrococcus luteus [5] was found to be 57 µM (≈ 16 µg/mL); in data set [6], 14 µM (≈ 3.93 µg/mL); in data set [7], 29 µM (≈ 8.14 µg/mL); in the data set on Bacillus spizizenii, 57 µM (≈ 16 µg/mL); with Bacillus cereus it was 29 µM (≈ 8.14 µg/mL); in the data set on Staphylococcus aureus [8], 29 µM (≈ 8.14 µg/mL). Moreover, the MIC was found to be 114 µM (≈ 32 µg/mL) with Enterococcus faecalis, 14 µM (≈ 3.93 µg/mL) against Staphylococcus aureus [9], 29 µM (≈ 8.14 µg/mL) with Enterococcus hirae and 914 µM (≈ 257 µg/mL) against Pseudomonas aeruginosa [10]. Besides, the selectivity ratio amounted to 0.07 in data set [11]; 1.08 in data set [12]; 1.08 in data set [13]; 1.08 in [14]; 1.08 in [15]; 2.13 in [16]. For the same compound, the selectivity ratio in data set [17] came out at 4.42. The half-maximal inhibitory concentration (IC50) with A549 amounted to 60 µM; in the data set with HaCaT, 62 µM.
Take `Fc1ccc(-n2nnnc2NCCc2c[nH]c3ccccc23)cc1`: the MIC against Micrococcus luteus [1] came to 12 µM (≈ 3.87 µg/mL); against Pseudomonas aeruginosa [2], 397 µM (≈ 128 µg/mL); in the data set on Escherichia coli, 25 µM (≈ 8.06 µg/mL); against Staphylococcus aureus [3] it was 50 µM (≈ 16.1 µg/mL); in [4], 12 µM (≈ 3.87 µg/mL); with Proteus vulgaris, 12 µM (≈ 3.87 µg/mL). For the same compound, the MIC was 12 µM (≈ 3.87 µg/mL) against Micrococcus luteus [5]; 12 µM (≈ 3.87 µg/mL) in data set [6]; 50 µM (≈ 16.1 µg/mL) in [7]; 12 µM (≈ 3.87 µg/mL) against Bacillus spizizenii; 6 µM (≈ 1.93 µg/mL) with Bacillus cereus; 12 µM (≈ 3.87 µg/mL) against Staphylococcus aureus [8]. For the same compound, the MIC against Enterococcus faecalis amounted to 50 µM (≈ 16.1 µg/mL); against Staphylococcus aureus [9] it was 25 µM (≈ 8.06 µg/mL); in the data set on Enterococcus hirae it was 25 µM (≈ 8.06 µg/mL); against Pseudomonas aeruginosa [10], 397 µM (≈ 128 µg/mL).
As for `O=C(O)n1nnnc1NCCc1c[nH]c2ccccc12`, the MIC in the data set on Micrococcus luteus [1] came out at 15 µM (≈ 4.08 µg/mL); in the data set with Pseudomonas aeruginosa [2], 471 µM (≈ 128 µg/mL); in the data set with Escherichia coli it was 29 µM (≈ 7.9 µg/mL); with Staphylococcus aureus [3], 59 µM (≈ 16.1 µg/mL); in data set [4], 29 µM (≈ 7.9 µg/mL); with Proteus vulgaris, 15 µM (≈ 4.08 µg/mL). For the same compound, the minimal inhibitory concentration (MIC) came out at 15 µM (≈ 4.08 µg/mL) against Micrococcus luteus [5]; 15 µM (≈ 4.08 µg/mL) in [6]; 29 µM (≈ 7.9 µg/mL) in data set [7]; 15 µM (≈ 4.08 µg/mL) against Bacillus spizizenii; 7 µM (≈ 1.91 µg/mL) against Bacillus cereus; 15 µM (≈ 4.08 µg/mL) against Staphylococcus aureus [8]. Further, the minimum inhibitory concentration (MIC) worked out at 59 µM (≈ 16.1 µg/mL) against Enterococcus faecalis, 15 µM (≈ 4.08 µg/mL) in the data set with Staphylococcus aureus [9], 29 µM (≈ 7.9 µg/mL) with Enterococcus hirae and 471 µM (≈ 128 µg/mL) against Pseudomonas aeruginosa [10].
